Where a chain is given by its changes, count along the chain named. Ends that are not written are not given here.

Three compounds from patent publication US20110152166A1, “METHOD OF MODULATION OF PROTEIN PHOSPHORYLATION-DEPENDENT CONFORMATIONAL TRANSITIONS WITH LOW MOLECULAR WEIGHT COMPOUNDS” (priority 2006, published 2011) can be followed below.

Test [1] deals with T1, GST-PDK1 1-556 (Homo sapiens, UniProt O15530).
T1 construct: made in house; host or cells: HEK293
T1 sequence (O15530 1-556): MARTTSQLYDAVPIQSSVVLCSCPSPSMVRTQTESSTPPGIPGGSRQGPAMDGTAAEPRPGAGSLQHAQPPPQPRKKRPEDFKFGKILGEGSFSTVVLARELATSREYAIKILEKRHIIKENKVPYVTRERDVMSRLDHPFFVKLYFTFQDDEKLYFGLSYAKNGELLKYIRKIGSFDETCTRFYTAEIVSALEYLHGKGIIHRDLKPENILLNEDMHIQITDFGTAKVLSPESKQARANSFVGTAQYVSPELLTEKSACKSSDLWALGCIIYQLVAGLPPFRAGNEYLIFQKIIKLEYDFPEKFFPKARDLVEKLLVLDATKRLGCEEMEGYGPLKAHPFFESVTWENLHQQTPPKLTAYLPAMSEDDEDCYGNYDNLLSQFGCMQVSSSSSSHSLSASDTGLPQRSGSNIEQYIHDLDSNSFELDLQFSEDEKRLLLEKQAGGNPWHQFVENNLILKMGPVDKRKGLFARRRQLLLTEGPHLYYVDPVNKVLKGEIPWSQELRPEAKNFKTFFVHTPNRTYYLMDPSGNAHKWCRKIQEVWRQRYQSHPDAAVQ
The experiment in a line: Surface plasmon resonance, GST-PDK1 binding to biotin-PIFtide and displacement by compounds. The settings on record: competition, pre-incubation with PDK1. On the procedure:
FIG. 3—Small compounds displace the binding of PDK1 1-556 to the HM peptide derived from its substrate PRK2, PIFtide. Surface plasmon resonance measurements were carried out on a BiaCore system to measure the interaction between GST-PDK1 and biotin-PIFtide coupled to a streptavidin-coated chip. (A) Direct measurement of PDK1 interaction with biotin-PIFtide. PDK1 was injected at the indicated concentrations (nM). For the following competition experiments, PDK1 45 nM was used. (B) PDK1 interaction with biotin-PIFtide was abolished by pre-incubation with PIFtide. […] The data points represent the maximal response units obtained after 30 s injection in the presence of the indicated concentration of compound. In (A) and (B) the spikes at the start and end of injection have been eliminated for clarity.
Binding of PDK1 to PIFtide was analysed by surface plasmon resonance on a BiaCore 3000 system using a streptavidin-coated Sensor chip (SA) and biotin-PIFtide, as previously described (Biondi et al., 2001). Biotin-PIFtide was bound to the chip to a level of 15 to 25 response units in different experiments. GST-PDK1 bound to biotin-PIFtide with an affinity of 90 nM, in good agreement with previous data obtained using the BiaCore system. For interaction-displacement assays, GST-PDK1 (60 nM) was injected (30 μl/min) in a buffer containing 10 mM HEPES pH 7.5, 150 mM NaCl, 0.005% Tween20, 1 mM DTT and 1% DMSO, in the presence or absence of compounds. GST-PDK1 was pre-incubated with compounds for 1 to 10 minutes before injection into the system, with similar results. Experiments were performed at least twice using different biotin-PIFtide coated chips, with similar results obtained on each occasion.
A general note: Surface plasmon resonance follows binding to a sensor surface in real time, without labels.

Test [2] has as its target T2, GST-PDK1 [Arg131Lys] (Homo sapiens, UniProt O15530, R131K).
T2 construct: different protein constructs, comprising the full length protein or the catalytic domain alone; made in house; host or cells: HEK293 cells (pEBG-2T-PDK1 mutant)
T2 sequence (O15530 1-556 R131K): T1 sequence (O15530 1-556) with R131K
Description: PDK1 activity assay with T308tide. Format: biochemical.

In the case of `O=C(O)CSC(CC(=O)c1ccc(Cl)cc1)c1ccccc1` (stereo not shown) [Compound 1], the “displacement of PDK1 binding to biotin-PIFtide (in words)” value (“displacement of PDK1 binding” below) in test [1] was “able to disrupt the binding”. In addition, in test [2], half-maximal activity (AC50) was put at 51 ± 15 µM and the Max. activity is 1.13 ± 0.09 U/mg.

Take `COC(=O)CSC(CC(=O)c1ccc(Cl)cc1)c1ccccc1` (stereo not shown) [Compound 2]: in test [1], the “displacement of PDK1 binding” value is recorded as “did not displace the binding significantly”.

Take “REPRILSEEEQEMFRDFDYIADWC [PIFtide, reference compound]”: the “displacement of PDK1 binding” value in test [1] is recorded as “abolished this interaction”. Also, in test [2], half-maximal activity (AC50) was put at 0.13 ± 0.02 µM and the Max. activity is on record as 0.77 ± 0.02 U/mg.
